Results: ChEMBL document CHEMBL3044572, “Discovery of 2-(4-cyano-3-trifluoromethylphenyl amino)-4-(4-quinazolinyloxy)-6-piperazinyl(piperidinyl)-s-triazines as potential antibacterial agents” (2012)
Converted amounts (≈) assume the structure as drawn. The source made the active and inactive calls. No cut-off for these calls is given here.

Legend:
Aspergillus clavatus [1] = experiment: Antimicrobial activity against Aspergillus clavatus MTCC 1323 by agar streak dilution method; assay type: functional
Shigella flexneri [2] = experiment: Antimicrobial activity against Shigella flexneri MTCC 1457 at 100 ug/ml by paper-disk diffusion method; assay type: functional, organism-based
Proteus vulgaris [3] = experiment: Antimicrobial activity against Proteus vulgaris MTCC 1771 by paper disk diffusion method; assay type: functional
[4] = test system: Mycobacterium tuberculosis; experiment: Antimicrobial activity against Mycobacterium tuberculosis H37Rv by BACTEC MGIT method; assay type: functional; conditions: Mycobacterium tuberculosis, H37Rv
Aspergillus fumigatus [5] = experiment: Antimicrobial activity against Aspergillus fumigatus MTCC 343 by paper-disk diffusion method; assay type: functional
Escherichia coli [6] = experiment: Antimicrobial activity against Escherichia coli MTCC 739 by paper disk diffusion method; assay type: functional
Staphylococcus aureus [7] = experiment: Antimicrobial activity against Staphylococcus aureus MTCC 96 by paper-disk diffusion method; assay type: functional
Aspergillus niger [8] = experiment: Antimicrobial activity against Aspergillus niger MTCC 282 by agar streak dilution method; assay type: functional
Salmonella typhi [9] = experiment: Antimicrobial activity against Salmonella enterica subsp. enterica serovar Typhi MTCC 733 by paper disk diffusion method; assay type: functional
Proteus vulgaris [10] = experiment: Antimicrobial activity against Proteus vulgaris MTCC 1771 by agar streak dilution method; assay type: functional
Bacillus cereus [11] = experiment: Antimicrobial activity against Bacillus cereus MTCC 619 by paper disk diffusion method; assay type: functional
[12] = test system: Mycobacterium tuberculosis; experiment: Antimicrobial activity against Mycobacterium tuberculosis H37Rv at 100 ug/ml by BACTEC MGIT method; assay type: functional, organism-based
Aspergillus niger [13] = experiment: Antimicrobial activity against Aspergillus niger MTCC 282 by paper-disk diffusion method; assay type: functional
Pseudomonas aeruginosa [14] = experiment: Antimicrobial activity against Pseudomonas aeruginosa MTCC 741 by paper disk diffusion method; assay type: functional
Escherichia coli [15] = experiment: Antimicrobial activity against Escherichia coli MTCC 739 by agar streak dilution method; assay type: functional
Klebsiella pneumoniae [16] = experiment: Antimicrobial activity against Klebsiella pneumoniae MTCC 109 by paper disk diffusion method; assay type: functional
Pseudomonas aeruginosa [17] = experiment: Antimicrobial activity against Pseudomonas aeruginosa MTCC 741 by agar streak dilution method; assay type: functional
Klebsiella pneumoniae [18] = experiment: Antimicrobial activity against Klebsiella pneumoniae MTCC 109 by agar streak dilution method; assay type: functional
Candida albicans [19] = experiment: Antimicrobial activity against Candida albicans MTCC 183 by paper-disk diffusion method; assay type: functional
Candida albicans [20] = experiment: Antimicrobial activity against Candida albicans MTCC 183 by agar streak dilution method; assay type: functional
Aspergillus clavatus [21] = experiment: Antimicrobial activity against Aspergillus clavatus MTCC 1323 by paper disk diffusion method; assay type: functional
Bacillus cereus [22] = experiment: Antimicrobial activity against Bacillus cereus MTCC 619 by agar streak dilution method; assay type: functional
Staphylococcus aureus [23] = experiment: Antimicrobial activity against Staphylococcus aureus MTCC 96 by agar streak dilution method; assay type: functional
[24] = test system: Mycobacterium tuberculosis; experiment: Antimicrobial activity against Mycobacterium tuberculosis H37Rv by Lowenstein and Jensen method; assay type: functional; conditions: for MIC: Mycobacterium tuberculosis, H37Rv
Salmonella typhi [25] = experiment: Antimicrobial activity against Salmonella enterica subsp. enterica serovar Typhi MTCC 733 by agar streak dilution method; assay type: functional
Aspergillus fumigatus [26] = experiment: Antimicrobial activity against Aspergillus fumigatus MTCC 343 by agar streak dilution method; assay type: functional
Pseudomonas aeruginosa [27] = experiment: Antimicrobial activity against Pseudomonas aeruginosa MTCC 741 at 100 ug/ml by paper disk diffusion method; assay type: functional, organism-based
Shigella flexneri [28] = experiment: Antimicrobial activity against Shigella flexneri MTCC 1457 by paper disk diffusion method; assay type: functional
Shigella flexneri [29] = experiment: Antimicrobial activity against Shigella flexneri MTCC 1457 by agar streak dilution method; assay type: functional

Row | Compound | MIC (Aspergillus clavatus [1]) [µg/mL] | inhibition zone (IZ) (Proteus vulgaris [3]) [mm] | MIC [4] [µg/mL] | inhibition zone (IZ) (Aspergillus fumigatus [5]) [mm] | inhibition zone (IZ) (Escherichia coli [6]) [mm] | inhibition zone (IZ) (Staphylococcus aureus [7]) [mm] | MIC (Aspergillus niger [8]) [µg/mL] | inhibition zone (IZ) (Salmonella typhi [9]) [mm] | MIC (Proteus vulgaris [10]) [µg/mL] | inhibition zone (IZ) (Bacillus cereus [11]) [mm] | inhibition [12] | inhibition zone (IZ) (Aspergillus niger [13]) [mm] | inhibition zone (IZ) (Pseudomonas aeruginosa [14]) [mm] | MIC (Escherichia coli [15]) [µg/mL] | inhibition zone (IZ) (Klebsiella pneumoniae [16]) [mm] | MIC (Pseudomonas aeruginosa [17]) [µg/mL] | MIC (Klebsiella pneumoniae [18]) [µg/mL] | inhibition zone (IZ) (Candida albicans [19]) [mm] | MIC (Candida albicans [20]) [µg/mL] | inhibition zone (IZ) (Aspergillus clavatus [21]) [mm] | other results
1 | N#Cc1ccc(Nc2nc(Oc3ncnc4ccccc34)nc(N3CCC(Cc4ccccc4)CC3)n2)cc1C(F)(F)F | 100 (≈ 172 µM) | 23 | > 6.25 | 21 | 21 | 23 | 100 (≈ 172 µM) | 22 | 25 (≈ 42.9 µM) | 23 | inactive | 21 | 19 | 100 (≈ 172 µM) | 23 | 100 (≈ 172 µM) | 100 (≈ 172 µM) | 22 | 100 (≈ 172 µM) | 20 | inhibition zone (IZ) (Shigella flexneri [2]): inactive; MIC (Bacillus cereus [22]): 100 µg/mL (≈ 172 µM); MIC (Staphylococcus aureus [23]): 100 µg/mL (≈ 172 µM); inhibition (percent inhibition) [24]: 94%; MIC [24]: 500 µg/mL (≈ 858 µM); MIC (Salmonella typhi [25]): 100 µg/mL (≈ 172 µM); MIC (Aspergillus fumigatus [26]): 100 µg/mL (≈ 172 µM)
2 | COc1ccc(N2CCN(c3nc(Nc4ccc(C#N)c(C(F)(F)F)c4)nc(Oc4ncnc5ccccc45)n3)CC2)cc1 | 6.25 (≈ 10.4 µM) | 26 | > 6.25 | 25 | 28 | 27 | 6.25 (≈ 10.4 µM) | 25 | 6.25 (≈ 10.4 µM) | 25 | inactive | 25 | 27 | 6.25 (≈ 10.4 µM) | 25 | 12.5 (≈ 20.8 µM) | 12.5 (≈ 20.8 µM) | 25 | 12.5 (≈ 20.8 µM) | 25 | inhibition zone (IZ) (Pseudomonas aeruginosa [27]): inactive; inhibition zone (IZ) (Shigella flexneri [28]): 23 mm; MIC (Shigella flexneri [29]): 50 µg/mL (≈ 83.4 µM); MIC (Bacillus cereus [22]): 6.25 µg/mL (≈ 10.4 µM); MIC (Staphylococcus aureus [23]): 6.25 µg/mL (≈ 10.4 µM); inhibition (percent inhibition) [24]: 99%; MIC [24]: 25 µg/mL (≈ 41.7 µM); MIC (Salmonella typhi [25]): 25 µg/mL (≈ 41.7 µM); MIC (Aspergillus fumigatus [26]): 6.25 µg/mL (≈ 10.4 µM)
3 | N#Cc1ccc(Nc2nc(Oc3ncnc4ccccc34)nc(N3CCN(c4ccc(F)cc4)CC3)n2)cc1C(F)(F)F | 12.5 (≈ 21.3 µM) | 24 | > 6.25 | 24 | 25 | 28 | 12.5 (≈ 21.3 µM) | 27 | 12.5 (≈ 21.3 µM) | 26 | inactive | 25 | 28 | 25 (≈ 42.6 µM) | 23 | 6.25 (≈ 10.6 µM) | 25 (≈ 42.6 µM) | 27 | 6.25 (≈ 10.6 µM) | 24 | inhibition zone (IZ) (Pseudomonas aeruginosa [27]): inactive; inhibition zone (IZ) (Shigella flexneri [28]): 23 mm; MIC (Shigella flexneri [29]): 50 µg/mL (≈ 85.1 µM); MIC (Bacillus cereus [22]): 12.5 µg/mL (≈ 21.3 µM); MIC (Staphylococcus aureus [23]): 6.25 µg/mL (≈ 10.6 µM); inhibition (percent inhibition) [24]: 98%; MIC [24]: 12.5 µg/mL (≈ 21.3 µM); MIC (Salmonella typhi [25]): 6.25 µg/mL (≈ 10.6 µM); MIC (Aspergillus fumigatus [26]): 12.5 µg/mL (≈ 21.3 µM)
4 | N#Cc1ccc(Nc2nc(Oc3ncnc4ccccc34)nc(N3CCN(c4ccccc4F)CC3)n2)cc1C(F)(F)F | 25 (≈ 42.6 µM) | 23 | > 6.25 | 22 | 24 | 27 | 3.12 (≈ 5.31 µM) | 26 | 25 (≈ 42.6 µM) | 26 | inactive | 26 | 25 | 50 (≈ 85.1 µM) | 24 | 25 (≈ 42.6 µM) | 25 (≈ 42.6 µM) | 26 | 12.5 (≈ 21.3 µM) | 24 | inhibition zone (IZ) (Pseudomonas aeruginosa [27]): inactive; inhibition zone (IZ) (Shigella flexneri [28]): 25 mm; MIC (Shigella flexneri [29]): 25 µg/mL (≈ 42.6 µM); MIC (Bacillus cereus [22]): 6.25 µg/mL (≈ 10.6 µM); MIC (Staphylococcus aureus [23]): 6.25 µg/mL (≈ 10.6 µM); inhibition (percent inhibition) [24]: 98%; MIC [24]: 12.5 µg/mL (≈ 21.3 µM); MIC (Salmonella typhi [25]): 12.5 µg/mL (≈ 21.3 µM); MIC (Aspergillus fumigatus [26]): 25 µg/mL (≈ 42.6 µM)
5 | CC(=O)N1CCN(c2nc(Nc3ccc(C#N)c(C(F)(F)F)c3)nc(Oc3ncnc4ccccc34)n2)CC1 | 12.5 (≈ 23.3 µM) | 25 | > 6.25 | 24 | 28 | 27 | 25 (≈ 46.7 µM) | 24 | 12.5 (≈ 23.3 µM) | 26 | inactive | 24 | 27 | 6.25 (≈ 11.7 µM) | 25 | 12.5 (≈ 23.3 µM) | 12.5 (≈ 23.3 µM) | 24 | 50 (≈ 93.4 µM) | 24 | inhibition zone (IZ) (Pseudomonas aeruginosa [27]): inactive; inhibition zone (IZ) (Shigella flexneri [28]): 22 mm; MIC (Shigella flexneri [29]): 100 µg/mL (≈ 187 µM); MIC (Bacillus cereus [22]): 6.25 µg/mL (≈ 11.7 µM); MIC (Staphylococcus aureus [23]): 12.5 µg/mL (≈ 23.3 µM); inhibition (percent inhibition) [24]: 96%; MIC [24]: 12.5 µg/mL (≈ 23.3 µM); MIC (Salmonella typhi [25]): 25 µg/mL (≈ 46.7 µM); MIC (Aspergillus fumigatus [26]): 25 µg/mL (≈ 46.7 µM)
6 | N#Cc1ccc(Nc2nc(Oc3ncnc4ccccc34)nc(N3CCN(c4ccccc4Cl)CC3)n2)cc1C(F)(F)F | 50 (≈ 82.8 µM) | 24 | > 6.25 | 24 | 22 | 26 | 50 (≈ 82.8 µM) | 26 | 25 (≈ 41.4 µM) | 24 | inactive | 22 | 24 | 100 (≈ 166 µM) | 23 | 25 (≈ 41.4 µM) | 100 (≈ 166 µM) | 25 | 12.5 (≈ 20.7 µM) | 22 | inhibition zone (IZ) (Pseudomonas aeruginosa [27]): inactive; inhibition zone (IZ) (Shigella flexneri [28]): 27 mm; MIC (Shigella flexneri [29]): 12.5 µg/mL (≈ 20.7 µM); MIC (Bacillus cereus [22]): 50 µg/mL (≈ 82.8 µM); MIC (Staphylococcus aureus [23]): 12.5 µg/mL (≈ 20.7 µM); inhibition (percent inhibition) [24]: 97%; MIC [24]: 25 µg/mL (≈ 41.4 µM); MIC (Salmonella typhi [25]): 6.25 µg/mL (≈ 10.3 µM); MIC (Aspergillus fumigatus [26]): 12.5 µg/mL (≈ 20.7 µM)
